Reference: patent US9138659B2, “Compositions, methods, and systems relating to controlled crystallization and/or nucleation of molecular species” (Massachusetts Institute of Technology, priority 2010, dated 2015)
“And” between values parts separate entries of the source, which are not always exact repeats. Equal entries are not always repeated.

Experiments:
[1] = ROY polymorph frequency of occurrence; type: physicochemical; settings: vs bulk crystallization
Method: (§1) In each experiment, crystallization of pure forms of either Y (yellow prisms), R (red prisms) or ON (orange needles) were observed from ethanol solution stochastically (FIG. 30), and their frequencies of occurrence were calculated by conducting 50-150 experiments in each case (FIG. 31). Nucleation induction time data from bulk solution or with PEG130DA microgels were fitted with the stretched exponential model and the average induction time thus regressed represents an average of all forms (Table 10), since the frequencies of occurrence for R and ON were too low for separate statistical analysis. […] In the multi-exponential model, each exponential decay process may be better represented with a stretched exponential, however, a simple exponential suffices in this case and decent fit was obtained with R^2 very close to unity (Table 11).
In FIG. 31: Polymorph frequency of occurrence in 12 mg/ml ROY-ethanol solution with or without microgels of various mesh sizes (left) and at higher solution concentrations, C0 (right). Frequency of occurrence is calculated as the percentage of samples crystallized in a particular form within 1440 min out of the total number of samples. The analysis for 12 mg/ml solution is carried out previously. In summary, addition of PEGDA microgels accelerated crystallization of all three forms, Y, R and ON.

[2] = ROY nucleation induction time with PEGMDA microgels in ethanol; type: physicochemical; settings: for τ(O): ROY orange needle form; for τ(R): ROY red form; for τ(Y): ROY yellow form
Method: as §1
Nucleation induction time statistics of ROY with or without the presence of PEGDA microgels were determined. For each type of samples, 50-100 experiments were performed to obtain the induction time statistics wherein P is the probability for observing no crystallization event within time t is estimated from the fraction of samples haven't crystallized at this time point. Either stretched exponential model or multi-exponential models were employed to fit the data (see Tables 10 and 11).
Induction time distribution data were fitted with stretched exponentials via nonlinear least square regression: P=exp[−(t/τ)^β], where P is the probability to observe no crystallization event within time t. τ is an average of induction times for all Y, R, ON forms.
Induction time distribution data were fitted with superposition of two or three exponentials via nonlinear least square regression. Two-exponential fit was employed for PEG200DA and PEG700DA samples: P=a·exp[−t/τ(Y)]+(1−a)·exp[−t/τ(R)], with τ(R) an average of forms R and O for the PEG700DA sample. Three-exponential fit was used for PEG400DA and PEG575DA samples: P=a·exp[−t/τ(Y)]+b·exp[−t/τ(R)]+(1−a−b)·exp[−t/τ(O)], where Y, R, and O represent the yellow, red and orange needle forms respectively. *τ, an average induction time of Form R and ON, given the lack of data points to distinguish the two.

[3] = as above; type: physicochemical; settings: ROY Form R; without microgels
[4] = ROY; at the chosen experimental condition; cited from earlier work
[5] = Preferred orientation of ROY crystals on PEGMDA polymer films by XRD; type: physicochemical
Excerpt: The ROY-polymer interactions were probed via preferred crystal orientations on flat PEGMDA films. From the bulk solution, ROY crystallized in Form Y predominantly. In comparison, PEGMDA films templated nucleation of R, as well as Y, which is consistent with the observations with microgels. […] To verify this observation, the contribution from each crystal facet was quantified and listed the prominent ones in Table 12. […] Polymers with M=130, 200 g/mol favor R (111) and R (220). As M increases, percentage of R decreases and Y increases to become the dominant polymorph on M=575, 700 g/mol, which is contact with the polymer via Y (020) and/or (040) facet.
XRD patterns of ROY crystallized from bulk solution and on PEGDA films under the substantially similar conditions were obtained. Additional peaks observed from crystals templated by polymer films but not from bulk crystals were observed. Reference patterns were calculated from CSD using POWD-12++.
Analysis on the XRD data is carried out by normalizing the measured peak intensities Ip^i with the reference peak intensities Ibulk^i from the bulk sample, following the formula
[formula] where ηi is the percentage of crystals in orientation i, and p is short for polymer. Percentages are highlighted as bold for dominant orientations in each case.

[6] = Partition coefficients of CBZ and ROY in PEGMDA microgels from ethanol solutions; type: physicochemical; settings: for Partition coefficient κ (solute mass fraction in gel solution / bulk): ethanol solution
[7] = PEGMDA polymer film M 130 g/mol
[8] = PEGMDA polymer film M 200 g/mol
[9] = PEGMDA polymer film M 400 g/mol
[10] = PEGMDA polymer film M 575 g/mol
[11] = PEGMDA polymer film M 700 g/mol

Cc1cc(C#N)c(Nc2ccccc2[N+](=O)[O-])s1 [ROY, 5-methyl-2-[(2-nitrophenyl)amino]-3-thiophenecarbonitrile]
improvement of Form R frequency of occurrence by polymer microgels [1]: up to 20 times | time within which all nucleation of Y occurred ([2]; ROY Form Y, PEG200DA microgels): ≤ 100 min | τ(O) ([2]; PEG400DA microgels): 3300 min | τ(O) ([2]; PEG575DA microgels): 2900 min | τ(R) ([2]; PEG200DA microgels): 9000 ± 6000 min | τ(R) ([2]; PEG400DA microgels): 1600 ± 400 min | τ(R) ([2]; PEG575DA microgels): 200 min and 200 ± 20 min | τ(Y) ([2]; PEG200DA microgels): 26.0 ± 1.5 min | τ(Y) ([2]; PEG400DA microgels): 22.0 ± 0.6 min | τ(Y) ([2]; PEG575DA microgels): 10.0 ± 0.8 min | τ(Y) ([2]; PEG700DA microgels): 12.0 ± 1.2 min | average nucleation induction time τ (average of Y, R, ON forms) ([2]; ROY, Bulk ethanol solution): 10000 ± 2000 min | average nucleation induction time τ (average of Y, R, ON forms) ([2]; ROY, PEG130DA microgels): 4000 ± 750 min | τ(R), an average induction time of Form R and ON ([2]; ROY, PEG700DA microgels): 2600 ± 400 min | average induction time of R [3]: over 10000 min | relative stability of the three observed polymorphs [4]: Y>ON>R | Percentage of ROY crystals in orientation R (111) [5, 7]: 38.0% | Percentage of ROY crystals in orientation R (220) [5, 7]: 46.8% | Percentage of ROY crystals in orientation Y (020) [5, 7]: 7.5% | Percentage of ROY crystals in orientation Y (040) [5, 7]: 3.4% | Percentage of ROY crystals in orientation R (111) [5, 8]: 36.2% | Percentage of ROY crystals in orientation R (220) [5, 8]: 53.6% | Percentage of ROY crystals in orientation Y (020) [5, 8]: 3.5% | Percentage of ROY crystals in orientation Y (040) [5, 8]: 1.6% | Percentage of ROY crystals in orientation R (111) [5, 9]: 28.8% | Percentage of ROY crystals in orientation R (220) [5, 9]: 24.9% | Percentage of ROY crystals in orientation Y (020) [5, 9]: 23.6% | Percentage of ROY crystals in orientation Y (040) [5, 9]: 9.9% | Percentage of ROY crystals in orientation R (111) [5, 10]: 12.9% | Percentage of ROY crystals in orientation R (220) [5, 10]: 20.0% | Percentage of ROY crystals in orientation Y (020) [5, 10]: 26.9% | Percentage of ROY crystals in orientation Y (040) [5, 10]: 13.1% | Percentage of ROY crystals in orientation R (111) [5, 11]: 9.8% | Percentage of ROY crystals in orientation R (220) [5, 11]: 14.4% | Percentage of ROY crystals in orientation Y (020) [5, 11]: 50.9% | Percentage of ROY crystals in orientation Y (040) [5, 11]: 16.9% | ROY concentration in the gel phase relative to bulk solution ([6]; PEGMDA gels, ethanol): 6-11 times | Partition coefficient κ (solute mass fraction in gel solution / bulk) ([6]; PEGMDA microgels M 130 g/mol): 6.3 ± 0.2 | Partition coefficient κ (solute mass fraction in gel solution / bulk) ([6]; PEGMDA microgels M 200 g/mol): 6.1 ± 0.9 | Partition coefficient κ (solute mass fraction in gel solution / bulk) ([6]; PEGMDA microgels M 400 g/mol): 11.0 ± 0.4 | Partition coefficient κ (solute mass fraction in gel solution / bulk) ([6]; PEGMDA microgels M 575 g/mol): 11.3 ± 1.6 | Partition coefficient κ (solute mass fraction in gel solution / bulk) ([6]; PEGMDA microgels M 700 g/mol): 11.8 ± 1.1
